Source: paper PMC10145010, “Tuning the Biological Activity of PI3Kδ Inhibitor by the Introduction of a Fluorine Atom Using the Computational Workflow” (Molecules, 2023)

Biological target: T1, PI3Kδ (Homo sapiens, UniProt O00329)
T1 construct: purchased Merck Millipore
Test: In vitro PI3Kδ inhibition assay (ADP-Glo kinase assay)
Format: biochemical
Conditions: mean from two independent experiments, PIP2 substrate 30 μM, 25 °C, 1 h
Description: All compounds were tested by a biochemical assay that measured the inhibition of phosphatidylinositol […] production by PI3K isoform. The potency of the tested compounds was assessed by determining the ability of PI3Kδ enzymes (Merck Millipore) to convert ATP to ADP during an enzymatic reaction in the presence of these compounds at decreasing doses. The experiments were carried out using the ADP-Glo kinase assay kit (Promega), according to the manufacturer’s protocol. PIP2 lipid vesicles containing phosphoserine (ThermoFisher Scientific, Waltham, MA, USA) were used as a substrate in the enzymatic reaction. The composition of the reaction mixture and reaction conditions for PI3Kδ were as follows: concentration of PI3Kδ enzyme: 10 ng; reaction temperature and time: 25 °C and 1 h; final concentration of PIP2 substrate: 30 μM; and reaction buffer: 50 mM of HEPES (pH 7.5), 50 mM NaCl, 3 mM MgCl2, and 0.025 mg/mL of BSA.
After the reaction, the ADP-Glo reagent and the kinase detection reagent were sequentially added. The reaction mixture was incubated for 40 min (25 °C, 600 rpm) after the addition of each reagent. Finally, luminescence intensity was measured and the IC50 value was calculated using GraphPad Prism 7 software (GraphPad, Boston, MA, USA). The results were presented as the mean value of IC50 obtained from at least two independent experiments.

T1 sequence (O00329 whole entry): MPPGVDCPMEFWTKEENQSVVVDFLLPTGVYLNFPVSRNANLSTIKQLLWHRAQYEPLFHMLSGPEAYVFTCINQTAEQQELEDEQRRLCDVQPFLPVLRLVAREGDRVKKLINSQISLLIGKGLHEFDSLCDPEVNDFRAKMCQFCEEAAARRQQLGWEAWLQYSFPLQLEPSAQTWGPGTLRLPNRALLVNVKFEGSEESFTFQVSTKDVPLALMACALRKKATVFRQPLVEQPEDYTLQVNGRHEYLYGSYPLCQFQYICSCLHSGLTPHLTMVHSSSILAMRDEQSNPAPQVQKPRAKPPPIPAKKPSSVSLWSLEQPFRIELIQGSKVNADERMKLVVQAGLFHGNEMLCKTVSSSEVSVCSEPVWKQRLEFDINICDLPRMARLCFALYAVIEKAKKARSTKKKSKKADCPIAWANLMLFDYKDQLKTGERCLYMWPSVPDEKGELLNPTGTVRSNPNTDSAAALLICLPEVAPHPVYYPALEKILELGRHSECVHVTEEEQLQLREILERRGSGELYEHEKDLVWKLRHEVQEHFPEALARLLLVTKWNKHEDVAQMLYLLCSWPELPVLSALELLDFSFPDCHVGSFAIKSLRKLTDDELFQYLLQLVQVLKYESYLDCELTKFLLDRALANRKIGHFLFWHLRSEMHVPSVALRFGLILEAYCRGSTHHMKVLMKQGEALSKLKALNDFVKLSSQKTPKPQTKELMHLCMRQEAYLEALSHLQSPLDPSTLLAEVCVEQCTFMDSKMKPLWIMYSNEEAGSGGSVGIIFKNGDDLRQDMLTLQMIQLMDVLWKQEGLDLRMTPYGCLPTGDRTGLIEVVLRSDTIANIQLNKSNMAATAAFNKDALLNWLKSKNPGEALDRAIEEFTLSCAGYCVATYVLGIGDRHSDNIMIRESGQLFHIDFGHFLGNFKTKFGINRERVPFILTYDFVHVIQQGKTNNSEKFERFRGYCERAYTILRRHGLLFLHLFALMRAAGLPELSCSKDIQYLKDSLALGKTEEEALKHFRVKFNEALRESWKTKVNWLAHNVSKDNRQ
T1 sequence (P27986 whole entry partner): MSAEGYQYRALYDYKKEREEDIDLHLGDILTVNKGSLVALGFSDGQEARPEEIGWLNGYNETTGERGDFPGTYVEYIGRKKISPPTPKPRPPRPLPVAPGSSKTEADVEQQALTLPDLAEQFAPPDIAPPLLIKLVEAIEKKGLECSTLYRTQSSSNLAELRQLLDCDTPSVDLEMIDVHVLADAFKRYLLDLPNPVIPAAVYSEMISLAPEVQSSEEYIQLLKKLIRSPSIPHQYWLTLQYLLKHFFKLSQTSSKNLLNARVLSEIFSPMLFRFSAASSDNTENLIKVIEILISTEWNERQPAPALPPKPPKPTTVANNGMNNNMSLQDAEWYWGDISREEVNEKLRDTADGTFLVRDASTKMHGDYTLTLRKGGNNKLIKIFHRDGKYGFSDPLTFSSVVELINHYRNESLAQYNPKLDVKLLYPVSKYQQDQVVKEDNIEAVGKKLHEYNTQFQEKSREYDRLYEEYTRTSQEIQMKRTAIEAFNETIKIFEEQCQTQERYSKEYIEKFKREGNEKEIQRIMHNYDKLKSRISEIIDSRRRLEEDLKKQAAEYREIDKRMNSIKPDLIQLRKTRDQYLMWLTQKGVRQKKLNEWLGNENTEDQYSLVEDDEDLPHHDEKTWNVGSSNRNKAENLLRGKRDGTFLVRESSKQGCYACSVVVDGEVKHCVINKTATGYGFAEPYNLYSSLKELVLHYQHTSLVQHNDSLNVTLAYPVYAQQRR

SMILES | IC50
CC(C)(C)N1CCN(Cc2nn3c(N4CCOCC4)cc(-n4c(C(F)F)nc5ccccc54)nc3c2Cl)CC1 [Compound 4, 1-{2-[(4-Tert-butylpiperazin-1-yl)methyl]-3-chloro-7-(morpholin-4-yl)pyrazolo[1,5-a]pyrimidin-5-yl}-2-(difluoromethyl)-1H-benzimidazole] | 44 nM
CC(C)(C)N1CCN(Cc2nn3c(N4CCOCC4)cc(-n4c(C(F)F)nc5ccccc54)nc3c2Br)CC1 [Compound 5, 1-{3-Bromo-2-[(4-tert-butylpiperazin-1-yl)methyl]-7-(morpholin-4-yl)pyrazolo[1,5-a]pyrimidin-5-yl}-2-(difluoromethyl)-1H-benzimidazole] | 50 nM
FC(F)c1nc2ccccc2n1-c1cc(N2CCOCC2)n2nc(CN3CCN(Cc4ccccc4)CC3)cc2n1 [Compound 6, 1-{2-[(4-Benzylpiperazin-1-yl)methyl]-7-(morpholin-4-yl)pyrazolo[1,5-a]pyrimidin-5-yl}-2-(difluoromethyl)-1H-benzimidazole] | 118 nM
Fc1ccccc1CN1CCN(Cc2cc3nc(-n4c(C(F)F)nc5ccccc54)cc(N4CCOCC4)n3n2)CC1 [Compound 7] | 640 nM
Fc1cccc(CN2CCN(Cc3cc4nc(-n5c(C(F)F)nc6ccccc65)cc(N5CCOCC5)n4n3)CC2)c1 [Compound 8] | 751 nM
Fc1ccc(CN2CCN(Cc3cc4nc(-n5c(C(F)F)nc6ccccc65)cc(N5CCOCC5)n4n3)CC2)cc1 [Compound 9] | 489 nM
O=C(c1cc2nc(-n3c(C(F)F)nc4ccccc43)cc(N3CCOCC3)n2n1)N1CCN(Cc2ccccc2)CC1 [Compound 10, 1-[2-(4-Benzylpiperazine-1-carbonyl)-7-(morpholin-4-yl)pyrazolo[1,5-a]pyrimidin-5-yl]-2-(difluoromethyl)-1H-benzimidazole] | 275 nM
O=C(c1cc2nc(-n3c(C(F)F)nc4ccccc43)cc(N3CCOCC3)n2n1)N1CCN(Cc2ccccc2F)CC1 [Compound 11, 2-(Difluoromethyl)-1-(2-{4-[(2-fluorophenyl)methyl]piperazine-1-carbonyl}-7-(morpholin-4-yl)pyrazolo[1,5-a]pyrimidin-5-yl)-1H-benzimidazole] | 212 nM
O=C(c1cc2nc(-n3c(C(F)F)nc4ccccc43)cc(N3CCOCC3)n2n1)N1CCN(Cc2cccc(F)c2)CC1 [Compound 12, 2-(Difluoromethyl)-1-(2-{4-[(3-fluorophenyl)methyl]piperazine-1-carbonyl}-7-(morpholin-4-yl)pyrazolo[1,5-a]pyrimidin-5-yl)-1H-benzimidazole] | 92 nM
O=C(c1cc2nc(-n3c(C(F)F)nc4ccccc43)cc(N3CCOCC3)n2n1)N1CCN(Cc2ccc(F)cc2)CC1 [Compound 13, 2-(Difluoromethyl)-1-(2-{4-[(4-fluorophenyl)methyl]piperazine-1-carbonyl}-7-(morpholin-4-yl)pyrazolo[1,5-a]pyrimidin-5-yl)-1H-benzimidazole] | 181 nM
